The test system of the test is Enterococcus faecalis. Put plainly: Antibacterial activity against vancomycin-resistant Enterococcus faecalis after 16 hrs by microtiter plate assay. The class given is functional.

Converted amounts (≈) assume the structure as drawn.

As a reminder, the MIC is the least concentration at which growth counts as inhibited. The low end stands for greater potency, the high end for weaker potency. `CC(/C=C/C(O)=C1/C(=O)CNC1=O)=C\[C@@H](C)[C@H]1O[C@@]2(C)O[C@H](C(=O)[C@H]3O[C@]32C)[C@@H]1C` [TIRANDAMYCIN A] came in with an MIC of 2.25 µM (≈ 0.939 µg/mL). Then `CC(/C=C/C(O)=C1/C(=O)CNC1=O)=C\[C@@H](C)[C@H]1O[C@@]2(C)O[C@H](C(=O)[C@H]3O[C@]32CO)[C@@H]1C` [TIRANDAMYCIN B], with 100 µM (≈ 43.3 µg/mL).

In turn, `CC1=CC[C@H]2O[C@]1(C)O[C@H]([C@H](C)/C=C(C)/C=C/C(O)=C1/C(=O)CNC1=O)[C@H]2C` [TIRANDAMYCIN C] came in with a minimal inhibitory concentration (MIC) of 110 µM (≈ 42.6 µg/mL). Then `CC1=CC(=O)[C@H]2O[C@]1(C)O[C@H]([C@H](C)/C=C(C)/C=C/C(O)=C1/C(=O)CNC1=O)[C@H]2C` [TIRANDAMYCIN D], with more than 9 µM.

(Values after ChEMBL document CHEMBL1153714, “Isolation and characterization of tirandamycins from a marine-derived Streptomyces sp” (2009).)
